Target: T1, Ubiquitin carboxyl-terminal hydrolase isozyme L3 (Homo sapiens, UniProt P15374)
T1 sequence (P15374 whole entry): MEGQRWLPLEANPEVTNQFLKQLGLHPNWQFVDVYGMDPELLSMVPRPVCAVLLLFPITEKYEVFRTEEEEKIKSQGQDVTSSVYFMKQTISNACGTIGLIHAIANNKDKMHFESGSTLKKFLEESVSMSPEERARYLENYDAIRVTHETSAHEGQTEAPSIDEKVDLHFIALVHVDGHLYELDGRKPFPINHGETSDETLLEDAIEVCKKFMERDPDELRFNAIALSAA
Test: Enzyme Inhibition Assay
Details: pH 7.8; 22 °C
Method: Enzyme reactions were carried out on Costar 96-well black assay plates. After the reaction, AMC fluorescence (excitation wavelength: 355 nm, emission wavelength: 460 nm) was subsequently measured 40 times every 3 s with a Wallac 1420 multi-label counter. Initial velocities (from 0 to 30 s) were used for IC50 determination, using GraphPad Prism 4 software.

IC50 [µM]	SMILES
154	COc1ccc(C2C(C(=O)c3cccs3)C(=O)C(=O)N2c2nncs2)cc1 (stereo not drawn)
103	Cc1ccc(C(=O)C2C(=O)C(=O)N(Cc3ccccc3)C2c2cccnc2)o1 (stereo not drawn) [1-benzyl-3-hydroxy-4-[(5-methylfuran-2-yl)carbonyl]-5-(pyridin-3-yl)-2,5-dihydro-1H-pyrrol-2-one]
> 386	COc1cccc(N(CC(=O)NC2CCCC2)S(=O)(=O)c2ccccc2)c1 [2-[benzene(3-methoxyphenyl)sulfonamido]-N-cyclopentylacetamide]
> 387	Nc1nc(CSc2nnc(-c3ccco3)n2-c2ccccc2)cs1 [4-({[5-(furan-2-yl)-4-phenyl-4H-1,2,4-triazol-3-yl]sulfanyl}methyl)-1,3-thiazol-2-amine]
123	Cc1ccc(C(=O)C2C(=O)C(=O)N(Cc3cccnc3)C2c2ccc(F)cc2)o1 (stereo not drawn) [5-(4-fluorophenyl)-3-hydroxy-4-[(5-methylfuran-2-yl)carbonyl]-1-(pyridin-3-ylmethyl)-2,5-dihydro-1H-pyrrol-2-one]
> 401	COc1ccc(S(=O)(=O)N(CC(=O)NC2CC2)c2ccc(C)cc2)cc1 [N-cyclopropyl-2-[(4-methoxybenzene)(4-methylphenyl)sulfonamido]acetamide]
> 334	COc1ccc(N(CC(=O)NC2CC2)S(=O)(=O)c2ccc(C)cc2)cc1 [N-cyclopropyl-2-[(4-methoxyphenyl)(4-methylbenzene)sulfonamido]acetamide]
> 331	CCS(=O)(=O)Nc1cccc(C2=NN(C(C)=O)C(c3cccs3)C2)c1 (stereo not drawn) [N-{3-[1-acetyl-5-(thiophen-2-yl)-4,5-dihydro-1H-pyrazol-3-yl]phenyl}ethane-1-sulfonamide]
